# Data published in patent publication US12479843B2, “Spiro ring-containing quinazoline compounds” (WIGEN BIOMEDICINE TECHNOLOGY (SHANGHAI) CO., LTD., priority 2019, dated 2025).
# Test system: H358 cells
# Assay: Antiproliferative activity against H358 cells (Cell Titer Glow, ultra-low attachment plate)
# Type: cell-based
# Settings: Homo sapiens, NCI-H358, 72 h, 96-well ultra-low attachment plate, three days after addition of compound, Cell Titer Glow
# Method: 2500 H358 cells were seeded in a 96-well ultra-low attachment plate (corning, 7007). After one day of growth, a serially diluted compound (a maximum concentration of 5 μM, 5-fold dilution, a total of five doses) was added. Three days after the addition of the compound, Cell Titer Glow (Promega, G9681) was added to evaluate pellet growth, and the IC50 value was calculated.
row,IC50,SMILES
1,< 300 nM,C=CC(=O)N1CC2(CCN(c3nc(N4CC(N5CCC5)C4)nc4c(OCC(F)(F)F)c(-c5c(C)c(C)cc6[nH]ncc56)c(C5CC5)cc34)CC2)C1 [Compound 217]
2,< 300 nM,C=CC(=O)N1CC2(CCN(c3nc(N4CC5(CC(N6CCC[C@@H]6C)C5)C4)nc4c(OCC(F)(F)F)c(-c5c(C)ccc6[nH]ncc56)c(C5CC5)cc34)CC2)C1 [Compound 290]
3,< 300 nM,C=CC(=O)N1CC2(CCN(c3nc(N4CC5(CN(CC6CC6)C5)C4)nc4c(OCC(F)(F)F)c(-c5c(C)ccc6[nH]ncc56)c(C5CC5)cc34)CC2)C1 [Compound 157]
4,300 to 1000 nM,C#Cc1cc2c(N3CCC4(CC3)CN(C(=O)C=C)C4)nc(OC3CCN(CCOC)CC3)nc2c(OCC(F)(F)F)c1-c1c(C)ccc2[nH]ncc12 [Compound 16]
5,< 300 nM,C=CC(=O)N1CC2(CCN(c3nc(N(C)CCN4CC[C@H](C)C4)nc4c(OCC(F)(F)F)c(-c5c(C)ccc6[nH]ncc56)c(C5CC5)cc34)CC2)C1 [Compound 233]
6,< 300 nM,C=CC(=O)N1CC2(CCN(c3nc(N4CC[C@@H](N(C)CC)C4)nc4c(OCC(F)(F)F)c(-c5c(C)ccc6[nH]ncc56)c(C5CC5)cc34)CC2)C1 [Compound 188]
7,300 to 1000 nM,C=C(F)C(=O)N1CC2(CCN(c3nc(N4CC5(CCN(C)CC5)C4)nc4c(OCC(F)(F)F)c(-c5c(C)ccc6[nH]ncc56)c(C5CC5)cc34)CC2)C1 [Compound 78]
8,< 300 nM,C=CC(=O)N1CC2(CCN(c3nc(OC4C(C)CS(=O)(=O)CC4C)nc4c(OCC(F)(F)F)c(-c5c(C)ccc6[nH]ncc56)c(C5CC5)cc34)CC2)C1 (stereo not drawn) [Compound 317]
9,< 300 nM,C=CC(=O)N1CC2(CCN(c3nc(N4CCC5(CCN(C)C5)CC4)nc4c(OCC(F)(F)F)c(-c5c(C)ccc6[nH]ncc56)c(C5CC5)cc34)CC2)C1 [Compound 163]
10,300 to 1000 nM,C=CC(=O)N1CC2(CCN(c3nc(N4CCC5(CN(C)C5)C4)nc4c(OCC(F)(F)F)c(-c5c(C)ccc6[nH]ncc56)c(C5CC5)cc34)CC2)C1 [Compound 97]
11,< 300 nM,C=CC(=O)N1CC2(CCN(c3nc(N4CC5(C4)[C@@H](N(C)C)CCN5C)nc4c(OCC(F)(F)F)c(-c5c(C)ccc6[nH]ncc56)c(C5CC5)cc34)CC2)C1 [Compound 277]
12,< 300 nM,C=CC(=O)N1CC2(CCN(c3nc(N4CC(N5CCCC5)C4)nc4c(OCC(F)(F)F)c(-c5c(C)ccc6[nH]ncc56)c(C5(C)CC5)cc34)CC2)C1 [Compound 323]
13,< 300 nM,C=C(F)C(=O)N1CC2(CCN(c3nc(N4CCC5(CCN(CCOC)CC5)C4)nc4c(OCC(F)(F)F)c(-c5c(C)ccc6[nH]ncc56)c(C5CC5)cc34)CC2)C1 [Compound 102]
14,300 to 1000 nM,C=CC(=O)N1CC2(CCN(c3nc(N4CC(N5CCC(F)(F)C5)C4)nc4c(OCC(F)(F)F)c(-c5c(C)ccc6[nH]ncc56)c(C5CC5)cc34)CC2)C1 [Compound 176]
15,< 300 nM,C=C(F)C(=O)N1CC2(CCN(c3nc(OC4CN(CCOC)C4)nc4c(OCC(F)(F)F)c(-c5c(C)ccc6[nH]ncc56)c(C5CC5)cc34)CC2)C1 [Compound 114]
16,< 300 nM,C=CC(=O)N1CC2(CCN(c3nc(N4CC(N5CCC5)C4)nc4c(OCC(F)(F)F)c(-c5c(C)c(C)cc6[nH]ncc56)c(C=C)cc34)CC2)C1 [Compound 221]
17,< 300 nM,C=CC(=O)N1CC2(CCN(c3nc(N4CC5(CC(N6CCC6)C5)C4)nc4c(OCC(F)(F)F)c(-c5c(C)ccc6[nH]ncc56)c(C5CC5)cc34)CC2)C1 [Compound 287]
18,< 300 nM,C=CC(=O)N1CC2(CCN(c3nc(N4CC5(C4)OCC[C@@H]5N(C)C)nc4c(OCC(F)(F)F)c(-c5c(C)ccc6[nH]ncc56)c(C5CC5)cc34)CC2)C1 [Compound 280]
19,< 300 nM,C=CC(=O)N1CC2(CCN(c3nc(N4CCC5(CC4)CC(N)C5)nc4c(OCC(F)(F)F)c(-c5c(C)ccc6[nH]ncc56)c(C5CC5)cc34)CC2)C1 [Compound 162]
20,< 300 nM,C=CC(=O)N1CC2(CCN(c3nc(OC4CN(C)C4)nc4c(OCC(F)(F)F)c(-c5c(C)ccc6[nH]ncc56)c(C5CC5)cc34)CC2)C1 [Compound 109]

row,SMILES,IC50
1,C=CC(=O)N1CC2(CCN(c3nc(N4CC[C@@H](N5C6CCC5CC6)C4)nc4c(OCC(F)(F)F)c(-c5c(C)ccc6[nH]ncc56)c(C5CC5)cc34)CC2)C1 [Compound 303],< 300 nM

# Test system: pERK level in H358 cells
# Assay: pERK and ERK protein content assay in H358 cells (ELISA)
# Type: cell-based
# Settings: Homo sapiens, NCI-H358, compound 1 μM, 24 h, pERK/ERK ratio compared with DMSO group, read-out: Inhibition rate (%) of pERK level
# How it was run: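 H358 cells grown one day, then treated 24 h with compound at 1 μM. pERK and ERK in lysates measured by ELISA; pERK/ERK ratio expressed as percent inhibition versus DMSO.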
row,SMILES,inhibition at 1 µM
1,C=CC(=O)N1CC2(CCN(c3nc(N4CC(N5CCC5)C4)nc4c(OCC(F)(F)F)c(-c5c(C)c(C)cc6[nH]ncc56)c(C5CC5)cc34)CC2)C1 [Compound 217],> 90%
2,C=CC(=O)N1CC2(CCN(c3nc(N4CC5(CC(N6CCC[C@@H]6C)C5)C4)nc4c(OCC(F)(F)F)c(-c5c(C)ccc6[nH]ncc56)c(C5CC5)cc34)CC2)C1 [Compound 290],> 90%
3,C=CC(=O)N1CC2(CCN(c3nc(N4CC5(CN(CC6CC6)C5)C4)nc4c(OCC(F)(F)F)c(-c5c(C)ccc6[nH]ncc56)c(C5CC5)cc34)CC2)C1 [Compound 157],> 90%
4,C#Cc1cc2c(N3CCC4(CC3)CN(C(=O)C=C)C4)nc(OC3CCN(CCOC)CC3)nc2c(OCC(F)(F)F)c1-c1c(C)ccc2[nH]ncc12 [Compound 16],50 to 90%
5,C=CC(=O)N1CC2(CCN(c3nc(N(C)CCN4CC[C@H](C)C4)nc4c(OCC(F)(F)F)c(-c5c(C)ccc6[nH]ncc56)c(C5CC5)cc34)CC2)C1 [Compound 233],> 90%
6,C=CC(=O)N1CC2(CCN(c3nc(N4CC[C@@H](N(C)CC)C4)nc4c(OCC(F)(F)F)c(-c5c(C)ccc6[nH]ncc56)c(C5CC5)cc34)CC2)C1 [Compound 188],> 90%
7,C=C(F)C(=O)N1CC2(CCN(c3nc(N4CC5(CCN(C)CC5)C4)nc4c(OCC(F)(F)F)c(-c5c(C)ccc6[nH]ncc56)c(C5CC5)cc34)CC2)C1 [Compound 78],50 to 90%
8,C=CC(=O)N1CC2(CCN(c3nc(OC4C(C)CS(=O)(=O)CC4C)nc4c(OCC(F)(F)F)c(-c5c(C)ccc6[nH]ncc56)c(C5CC5)cc34)CC2)C1 (stereo not drawn) [Compound 317],> 90%
9,C=CC(=O)N1CC2(CCN(c3nc(N4CCC5(CCN(C)C5)CC4)nc4c(OCC(F)(F)F)c(-c5c(C)ccc6[nH]ncc56)c(C5CC5)cc34)CC2)C1 [Compound 163],> 90%
10,C=CC(=O)N1CC2(CCN(c3nc(N4CCC5(CN(C)C5)C4)nc4c(OCC(F)(F)F)c(-c5c(C)ccc6[nH]ncc56)c(C5CC5)cc34)CC2)C1 [Compound 97],50 to 90%
11,C=CC(=O)N1CC2(CCN(c3nc(N4CC5(C4)[C@@H](N(C)C)CCN5C)nc4c(OCC(F)(F)F)c(-c5c(C)ccc6[nH]ncc56)c(C5CC5)cc34)CC2)C1 [Compound 277],> 90%
12,C=CC(=O)N1CC2(CCN(c3nc(N4CC(N5CCCC5)C4)nc4c(OCC(F)(F)F)c(-c5c(C)ccc6[nH]ncc56)c(C5(C)CC5)cc34)CC2)C1 [Compound 323],> 90%
13,C=C(F)C(=O)N1CC2(CCN(c3nc(N4CCC5(CCN(CCOC)CC5)C4)nc4c(OCC(F)(F)F)c(-c5c(C)ccc6[nH]ncc56)c(C5CC5)cc34)CC2)C1 [Compound 102],> 90%
14,C=CC(=O)N1CC2(CCN(c3nc(N4CC(N5CCC(F)(F)C5)C4)nc4c(OCC(F)(F)F)c(-c5c(C)ccc6[nH]ncc56)c(C5CC5)cc34)CC2)C1 [Compound 176],50 to 90%
15,C=C(F)C(=O)N1CC2(CCN(c3nc(OC4CN(CCOC)C4)nc4c(OCC(F)(F)F)c(-c5c(C)ccc6[nH]ncc56)c(C5CC5)cc34)CC2)C1 [Compound 114],> 90%
16,C=CC(=O)N1CC2(CCN(c3nc(N4CC(N5CCC5)C4)nc4c(OCC(F)(F)F)c(-c5c(C)c(C)cc6[nH]ncc56)c(C=C)cc34)CC2)C1 [Compound 221],> 90%
17,C=CC(=O)N1CC2(CCN(c3nc(N4CC[C@@H](N5C6CCC5CC6)C4)nc4c(OCC(F)(F)F)c(-c5c(C)ccc6[nH]ncc56)c(C5CC5)cc34)CC2)C1 [Compound 303],> 90%
18,C=CC(=O)N1CC2(CCN(c3nc(N4CC5(CC(N6CCC6)C5)C4)nc4c(OCC(F)(F)F)c(-c5c(C)ccc6[nH]ncc56)c(C5CC5)cc34)CC2)C1 [Compound 287],> 90%
19,C=CC(=O)N1CC2(CCN(c3nc(N4CC5(C4)OCC[C@@H]5N(C)C)nc4c(OCC(F)(F)F)c(-c5c(C)ccc6[nH]ncc56)c(C5CC5)cc34)CC2)C1 [Compound 280],> 90%
20,C=CC(=O)N1CC2(CCN(c3nc(N4CCC5(CC4)CC(N)C5)nc4c(OCC(F)(F)F)c(-c5c(C)ccc6[nH]ncc56)c(C5CC5)cc34)CC2)C1 [Compound 162],> 90%
21,C=CC(=O)N1CC2(CCN(c3nc(OC4CN(C)C4)nc4c(OCC(F)(F)F)c(-c5c(C)ccc6[nH]ncc56)c(C5CC5)cc34)CC2)C1 [Compound 109],> 90%
